Drawing on PubChem BioAssay AID1053170 (The Scripps Research Institute Molecular Screening Center, 2014), this text covers IC50 for 32 compounds.

Activity calls are given as the source filed them. How the calls were made is not given here.

Chain of E3 ubiquitin-protein ligase UHRF1 (Homo sapiens) (Q96T88 whole entry, looked up): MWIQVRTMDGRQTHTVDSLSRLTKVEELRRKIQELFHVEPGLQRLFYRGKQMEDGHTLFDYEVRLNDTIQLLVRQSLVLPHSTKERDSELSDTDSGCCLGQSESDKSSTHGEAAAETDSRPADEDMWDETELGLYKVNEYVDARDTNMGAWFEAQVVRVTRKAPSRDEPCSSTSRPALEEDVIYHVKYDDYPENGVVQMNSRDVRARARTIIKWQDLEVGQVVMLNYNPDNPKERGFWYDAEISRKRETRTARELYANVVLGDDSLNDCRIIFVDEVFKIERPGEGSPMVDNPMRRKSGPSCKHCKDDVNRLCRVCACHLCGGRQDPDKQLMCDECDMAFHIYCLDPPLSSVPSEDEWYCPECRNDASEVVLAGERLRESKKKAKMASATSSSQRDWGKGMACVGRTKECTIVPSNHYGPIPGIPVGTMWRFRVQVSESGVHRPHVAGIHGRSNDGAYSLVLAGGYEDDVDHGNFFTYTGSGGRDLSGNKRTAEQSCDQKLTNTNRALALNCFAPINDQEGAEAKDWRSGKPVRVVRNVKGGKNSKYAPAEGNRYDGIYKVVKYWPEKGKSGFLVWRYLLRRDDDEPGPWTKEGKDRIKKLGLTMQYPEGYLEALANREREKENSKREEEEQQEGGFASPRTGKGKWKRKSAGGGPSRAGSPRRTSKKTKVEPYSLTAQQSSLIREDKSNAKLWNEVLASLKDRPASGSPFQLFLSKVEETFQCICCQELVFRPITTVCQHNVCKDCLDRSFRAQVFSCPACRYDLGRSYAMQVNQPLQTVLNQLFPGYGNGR

The assay concerns the target E3 ubiquitin-protein ligase UHRF1 (Homo sapiens) (UniProt Q96T88). Put plainly: blockers of UHRF1 binding to methyl-oligo – biochemical, TR-FRET, human UHRF1, dose response, counter-screen for MBD2 inhibitor project, late-stage follow-up (AID 1053170). As to conditions: TR-FRET UHRF1-methylated DNA binding. (In general: TR-FRET usually uses a lanthanide donor and a delayed reading to cut background.)
On to `c1ccc2c(c1)C1=NCCN1c1ccccc1-2`, for which the IC50 result is “inactive”.

Turning to `Cc1c2cnn(CC(=O)Nc3c(F)c(F)cc(F)c3F)c(=O)c2c(C)n1Cc1ccccc1F`, the IC50 result was “inactive”.

As to `Cc1ccc(NCCN(C)C)c2c(=O)c3cc(O)ccc3sc12`, the IC50 entry is “inactive”.

Take `Cc1ccc(Cl)cc1N1CCN(S(=O)(=O)c2ccc3c(c2)NC(=O)C(C)C(=O)N3)CC1` (configuration not stated): the IC50 is > 43.8 µM (inactive).

With `O=C(Nc1ccc(OCc2ccccc2)cc1)c1ccccc1`, the IC50 was > 43.8 µM (inactive).

As for `CCOc1ccc(S(=O)(=O)N2CCCC(C(=O)NCC3CCCO3)C2)cc1Cl` (configuration not stated), the IC50 is > 43.8 µM (inactive).

Turning to `O=C(CSc1ccccn1)Nc1ccc(N2CCOCC2)cc1`, the IC50 was > 43.8 µM (inactive).

With `CCOC(=O)c1oc2ccc(CNC(C)(C)C)c(Cl)c2c1C`, the IC50 was > 43.8 µM (inactive).

In the case of `CCOC(=O)c1cnc2c(ccc3ccccc32)c1NCCCN(C)C`, the IC50 result is “inactive”.

For `CC(=O)N(c1ccccc1)c1nc(/C=C/C(=O)Nc2c(C)cc(C)cc2C)cs1`, the IC50 is > 43.8 µM (inactive).

For `CSc1ccc(OC2CCCCC2NS(=O)(=O)c2ccccc2)cc1` (configuration not stated), the IC50 was > 43.8 µM (inactive).

For the compound `CN(C)CCNc1ccc(CO)c2sc3ccc(O)cc3c(=O)c12`, the IC50 was > 43.8 µM (inactive).

Consider `COc1ccc(NC(=O)CN2CCN(c3ccccc3C)CC2)cc1`, for which the IC50 is > 43.8 µM (inactive).

On to `COc1ccc(NC(=O)COC(=O)CCc2ccc(S(=O)(=O)N3CCOCC3)cc2)cc1Cl`, for which the IC50 is > 43.8 µM (inactive).

For `COc1ccc(C(=O)NCCN(C)C)c2nc3ccccc3cc12`, the IC50 entry is “inactive”.

As for `COc1cccc2nc3c(C(=O)NCCN(C)C)cccc3cc12`, the IC50 was > 43.8 µM (inactive).

In the case of `COc1ccc(C(=O)N2CCC(C(=O)Nc3ccc(C)cc3)CC2)cc1`, the IC50 is > 43.8 µM (inactive).

Consider `Cc1cc2[nH]c3c4ccccc4nc(C)c3c2cc1C`, for which the IC50 result is “inactive”.

As for `O=C(CSc1nc(-c2ccccc2)c(-c2ccccc2)o1)N1CCOCC1`, the IC50 is > 43.8 µM (inactive).

As for `CCOC(=O)c1ccc(NC(=O)COc2ccc(CNCCO)cc2OCC)cc1`, the IC50 is > 43.8 µM (inactive).

Take `CSc1ccc(OC2CCCCC2NS(=O)(=O)c2ccc(Cl)cc2)cc1` (configuration not stated): the IC50 was > 43.8 µM (inactive).

As to `CC(C)n1nc(C(=O)Nc2nc3ccccc3[nH]2)c2ccccc2c1=O`, the IC50 was > 43.8 µM (inactive).

With `N=C1C(c2nc3ccccc3s2)=C(O)CN1NC(=O)c1c[nH]c2ccccc12`, the IC50 is > 43.8 µM (inactive).

For `COc1ccccc1C(=O)COC(=O)c1ccc(N(C)C)cc1`, the IC50 is > 43.8 µM (inactive).

As for `CC(C)C(=O)Nc1nnc(SCC(=O)NC2CCCC2)s1`, the IC50 is > 43.8 µM (inactive).

For the compound `COc1ccc(NC(=O)Cn2cc(C(C)=O)c3ccccc32)cc1`, the IC50 was > 43.8 µM (inactive).

In the case of `COc1ccc2c(=O)c3c(=O)n(-c4ccccc4)c(-c4ccc(C)cc4)nc3oc2c1`, the IC50 is > 43.8 µM (inactive).

For the compound `CN(C)CCNC(=O)c1cccc2[nH]c(-c3ccncc3)nc12`, the IC50 entry is “inactive”.

Consider `CCCCn1c(NC(C)CC)nc2c1c(=O)[nH]c(=O)n2C` (configuration not stated), for which the IC50 is > 43.8 µM (inactive).

Turning to `Clc1ccc2c(c1)-c1ccccc1C1=NCCN12`, the IC50 entry is “inactive”.

Turning to `CCc1cccc(OCC(=O)Nc2ccc(S(=O)(=O)Nc3ccccn3)cc2)c1`, the IC50 is > 43.8 µM (inactive).

In the case of `Cc1cc(C)n2nc(CC(=O)NCc3ccc(F)cc3)nc2n1`, the IC50 was > 43.8 µM (inactive).

For orientation: IC50 means the concentration at which inhibition is half-maximal.
